Measurements: paper PMC4858680, “A platinum-based hybrid drug design approach to circumvent acquired resistance to molecular targeted tyrosine kinase inhibitors” (Scientific Reports, 2016)

Legend:
[1] = target: T1, ABCG2 (Homo sapiens, UniProt Q9UNQ0); experiment: Bidirectional drug transport assay; assay type: in vitro ADME; conditions: dog, pH 7.4, MDCKII–ABCG2, mean of three experiments
T1 construct: expressed in transfected cells; host or cells: MDCKII-ABCG2

[2] = target: ABL1(E317I)-nonphosphorylated (Homo sapiens, UniProt P00519, F317I); experiment: biochemical; conditions: read-out: Percent control
[3] = target: ABL1(F317L)-nonphosphorylated (Homo sapiens, UniProt P00519, F317L); experiment: biochemical; conditions: read-out: Percent control
[4] = target: ABL1(H396P)-phosphorylated (Homo sapiens, UniProt P00519, H396P); experiment: biochemical; conditions: read-out: Percent control
[5] = target: ABL1(Q252H)-nonphosphorylated (Homo sapiens, UniProt P00519, Q252H); experiment: biochemical; conditions: read-out: Percent control
[6] = target: ABL1(Q252H)-phosphorylated (Homo sapiens, UniProt P00519, Q252H); experiment: biochemical; conditions: read-out: Percent control
[7] = target: ABL1(T315I)-phosphorylated (Homo sapiens, UniProt P00519, T315I); experiment: biochemical; conditions: read-out: Percent control
[8] = target: FGFR3 (Homo sapiens, UniProt P22607); experiment: biochemical; conditions: read-out: Percent control
Sequence of FGFR3 (P22607 23-806): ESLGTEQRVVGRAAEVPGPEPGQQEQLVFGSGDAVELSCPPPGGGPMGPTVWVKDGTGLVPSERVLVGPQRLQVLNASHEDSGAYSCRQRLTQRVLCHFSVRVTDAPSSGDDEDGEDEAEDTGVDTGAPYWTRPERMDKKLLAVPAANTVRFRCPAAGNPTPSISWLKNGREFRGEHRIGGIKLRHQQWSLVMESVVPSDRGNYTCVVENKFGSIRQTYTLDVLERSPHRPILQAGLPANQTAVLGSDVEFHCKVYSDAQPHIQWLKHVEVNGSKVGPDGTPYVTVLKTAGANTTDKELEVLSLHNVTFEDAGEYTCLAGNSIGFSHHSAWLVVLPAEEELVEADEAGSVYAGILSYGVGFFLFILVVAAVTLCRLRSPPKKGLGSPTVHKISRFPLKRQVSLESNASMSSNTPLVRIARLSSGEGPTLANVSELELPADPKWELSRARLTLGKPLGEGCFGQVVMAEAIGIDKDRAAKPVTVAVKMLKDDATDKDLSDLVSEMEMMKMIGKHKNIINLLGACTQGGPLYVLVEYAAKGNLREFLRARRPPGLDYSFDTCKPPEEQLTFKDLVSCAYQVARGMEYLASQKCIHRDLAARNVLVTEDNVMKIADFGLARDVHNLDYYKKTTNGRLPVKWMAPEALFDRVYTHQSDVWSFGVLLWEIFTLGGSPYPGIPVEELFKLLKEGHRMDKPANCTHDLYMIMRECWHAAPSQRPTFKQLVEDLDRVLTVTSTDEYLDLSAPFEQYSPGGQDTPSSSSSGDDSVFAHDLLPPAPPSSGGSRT

[9] = test system: HEK293 Mock transfected; experiment: Anticancer activity in mock transfected HEK293; assay type: cell-based; conditions: Bcr-Abl negative
[10] = target: EGFR (Homo sapiens, UniProt P00533); experiment: biochemical; conditions: read-out: Percent control
Sequence of EGFR (P00533 25-1210): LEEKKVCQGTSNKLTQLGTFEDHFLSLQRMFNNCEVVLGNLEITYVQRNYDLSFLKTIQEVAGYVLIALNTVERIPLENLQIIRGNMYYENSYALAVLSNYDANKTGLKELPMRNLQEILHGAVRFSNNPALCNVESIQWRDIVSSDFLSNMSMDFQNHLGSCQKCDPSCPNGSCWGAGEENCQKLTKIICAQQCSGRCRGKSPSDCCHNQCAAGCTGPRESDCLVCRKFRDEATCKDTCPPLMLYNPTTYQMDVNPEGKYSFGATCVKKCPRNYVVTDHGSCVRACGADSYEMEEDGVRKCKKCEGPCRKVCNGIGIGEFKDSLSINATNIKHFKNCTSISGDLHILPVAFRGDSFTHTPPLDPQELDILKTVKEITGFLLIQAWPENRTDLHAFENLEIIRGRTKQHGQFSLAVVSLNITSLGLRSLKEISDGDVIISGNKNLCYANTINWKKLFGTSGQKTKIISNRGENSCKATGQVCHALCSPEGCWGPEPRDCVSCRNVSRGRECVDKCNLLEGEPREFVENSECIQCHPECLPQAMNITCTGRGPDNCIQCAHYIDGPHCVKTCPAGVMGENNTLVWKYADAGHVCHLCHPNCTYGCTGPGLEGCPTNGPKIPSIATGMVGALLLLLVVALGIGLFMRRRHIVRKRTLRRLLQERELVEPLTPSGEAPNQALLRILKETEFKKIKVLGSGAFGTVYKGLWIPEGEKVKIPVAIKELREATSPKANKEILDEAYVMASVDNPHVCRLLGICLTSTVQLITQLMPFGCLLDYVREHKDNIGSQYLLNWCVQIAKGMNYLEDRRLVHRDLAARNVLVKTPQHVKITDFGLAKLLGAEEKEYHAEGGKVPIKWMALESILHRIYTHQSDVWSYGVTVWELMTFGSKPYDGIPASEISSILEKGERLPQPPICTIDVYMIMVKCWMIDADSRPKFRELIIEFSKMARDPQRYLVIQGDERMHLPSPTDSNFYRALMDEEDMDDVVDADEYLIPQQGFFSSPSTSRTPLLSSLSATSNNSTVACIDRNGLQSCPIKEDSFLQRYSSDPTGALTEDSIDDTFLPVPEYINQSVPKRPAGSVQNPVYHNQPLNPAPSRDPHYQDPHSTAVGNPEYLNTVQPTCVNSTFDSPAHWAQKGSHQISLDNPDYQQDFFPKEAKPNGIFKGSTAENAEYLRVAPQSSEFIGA

[11] = target: T2, DDR2 (Homo sapiens, UniProt Q16832); experiment: biochemical; conditions: read-out: Percent control
T2 sequence (Q16832 22-855): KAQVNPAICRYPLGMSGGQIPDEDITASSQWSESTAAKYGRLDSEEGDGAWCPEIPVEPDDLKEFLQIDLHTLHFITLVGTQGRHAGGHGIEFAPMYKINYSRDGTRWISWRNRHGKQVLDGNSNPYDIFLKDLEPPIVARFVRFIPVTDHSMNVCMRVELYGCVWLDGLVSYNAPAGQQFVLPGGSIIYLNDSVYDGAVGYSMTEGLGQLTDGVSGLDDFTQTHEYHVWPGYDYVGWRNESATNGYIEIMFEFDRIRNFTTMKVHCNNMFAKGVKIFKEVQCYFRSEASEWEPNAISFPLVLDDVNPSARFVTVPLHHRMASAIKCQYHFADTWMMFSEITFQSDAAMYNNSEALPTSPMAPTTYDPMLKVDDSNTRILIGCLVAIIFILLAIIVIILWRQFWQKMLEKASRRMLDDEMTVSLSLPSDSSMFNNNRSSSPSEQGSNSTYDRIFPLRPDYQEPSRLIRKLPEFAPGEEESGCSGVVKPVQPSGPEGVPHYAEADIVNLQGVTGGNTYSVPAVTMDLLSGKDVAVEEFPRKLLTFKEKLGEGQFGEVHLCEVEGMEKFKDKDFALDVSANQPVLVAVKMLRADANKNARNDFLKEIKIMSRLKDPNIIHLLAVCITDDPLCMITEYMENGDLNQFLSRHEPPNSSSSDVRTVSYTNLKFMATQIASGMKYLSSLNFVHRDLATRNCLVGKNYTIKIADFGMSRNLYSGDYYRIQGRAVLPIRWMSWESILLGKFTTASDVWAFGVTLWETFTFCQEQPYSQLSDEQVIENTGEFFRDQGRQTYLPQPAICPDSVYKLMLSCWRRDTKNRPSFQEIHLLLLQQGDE

[12] = target: T3, FLT3(D835Y) (Homo sapiens, UniProt P36888, D835Y); experiment: biochemical; conditions: read-out: Percent control
T3 sequence (P36888 27-993 D835Y): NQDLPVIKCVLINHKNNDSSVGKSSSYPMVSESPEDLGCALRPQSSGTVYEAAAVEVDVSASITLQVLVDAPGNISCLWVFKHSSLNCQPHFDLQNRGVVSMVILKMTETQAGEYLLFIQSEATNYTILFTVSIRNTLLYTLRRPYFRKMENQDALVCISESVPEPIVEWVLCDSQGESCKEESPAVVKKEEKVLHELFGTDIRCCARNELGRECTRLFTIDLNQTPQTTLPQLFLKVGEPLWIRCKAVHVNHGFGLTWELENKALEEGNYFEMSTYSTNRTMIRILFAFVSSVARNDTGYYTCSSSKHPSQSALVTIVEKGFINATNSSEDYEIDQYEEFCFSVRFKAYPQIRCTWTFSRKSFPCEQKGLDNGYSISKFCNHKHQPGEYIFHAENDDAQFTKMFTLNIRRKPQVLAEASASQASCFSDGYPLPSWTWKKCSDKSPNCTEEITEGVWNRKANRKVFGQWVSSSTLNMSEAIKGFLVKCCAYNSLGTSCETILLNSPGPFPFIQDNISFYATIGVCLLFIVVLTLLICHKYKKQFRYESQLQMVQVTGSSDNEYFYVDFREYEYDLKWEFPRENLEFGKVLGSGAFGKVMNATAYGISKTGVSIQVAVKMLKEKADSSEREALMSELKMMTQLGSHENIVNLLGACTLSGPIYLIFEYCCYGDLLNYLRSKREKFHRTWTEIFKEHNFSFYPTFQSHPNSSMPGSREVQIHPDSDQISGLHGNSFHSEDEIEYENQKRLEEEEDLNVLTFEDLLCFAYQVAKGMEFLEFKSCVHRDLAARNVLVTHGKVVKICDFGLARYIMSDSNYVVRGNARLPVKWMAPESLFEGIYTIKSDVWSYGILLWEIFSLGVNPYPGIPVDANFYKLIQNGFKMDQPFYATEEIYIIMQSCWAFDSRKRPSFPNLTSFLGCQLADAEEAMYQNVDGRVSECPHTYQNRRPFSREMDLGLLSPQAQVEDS

[13] = target: T4, ABCG2 (MDCKII–ABCG2) (Homo sapiens, UniProt Q9UNQ0); experiment: Bidirectional drug transport assay; assay type: in vitro ADME; conditions: 10 μM, mean of three experiments
T4 construct: expressed in transfected cells; host or cells: MDCKII-ABCG2
T4 sequence (Q9UNQ0 whole entry, species assumed): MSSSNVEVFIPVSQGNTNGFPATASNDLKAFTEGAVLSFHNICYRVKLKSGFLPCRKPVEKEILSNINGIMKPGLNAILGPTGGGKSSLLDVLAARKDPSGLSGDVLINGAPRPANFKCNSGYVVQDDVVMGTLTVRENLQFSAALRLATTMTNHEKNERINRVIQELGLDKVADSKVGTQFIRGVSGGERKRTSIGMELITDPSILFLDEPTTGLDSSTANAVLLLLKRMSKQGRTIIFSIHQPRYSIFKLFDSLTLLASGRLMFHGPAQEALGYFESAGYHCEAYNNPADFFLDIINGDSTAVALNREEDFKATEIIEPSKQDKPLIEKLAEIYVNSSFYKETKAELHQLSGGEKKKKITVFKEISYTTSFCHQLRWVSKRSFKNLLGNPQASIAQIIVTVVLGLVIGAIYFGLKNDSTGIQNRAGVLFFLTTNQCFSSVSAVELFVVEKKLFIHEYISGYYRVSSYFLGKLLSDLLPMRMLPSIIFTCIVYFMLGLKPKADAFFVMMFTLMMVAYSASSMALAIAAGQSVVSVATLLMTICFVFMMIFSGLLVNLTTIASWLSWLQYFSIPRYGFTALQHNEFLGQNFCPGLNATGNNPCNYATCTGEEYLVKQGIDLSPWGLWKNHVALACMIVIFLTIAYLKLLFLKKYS

[14] = target: ABL1(M351T)-phosphorylated (Homo sapiens, UniProt P00519, M351T); conditions: 10 μM

T1 sequence (Q9UNQ0 whole entry, species assumed): as above

In the case of `C#Cc1cccc(Nc2ncnc3cc(OCCOC)c(OCCOC)cc23)c1` [Erlotinib], the Papp A→B at 120 min, 10 μM ([1]; read-out: A to B transport (apparent permeability)) is reported as 14.9 ×10⁻⁶ cm/s, the Papp B→A at 120 min, 10 μM ([1]; read-out: B to A transport (apparent permeability)) is reported as 45.4 ×10⁻⁶ cm/s and the remaining activity at 10 µM [2] is reported as 45.1%. The remaining activity at 10 µM [3] was 6%, the remaining activity at 10 µM [4] was 0.6% and the remaining activity at 10 µM [5] was 2.2%. For the same molecule, the remaining activity at 10 µM [6] was 0.6%, the remaining activity at 10 µM [7] was 0.6% and the remaining activity at 10 µM [8] was 100%.
In the case of `Cc1ccc(NC(=O)c2ccc(CN3CCN(C)CC3)cc2)cc1Nc1nccc(-c2cccnc2)[n+]1[Pt-2]1([Cl])[NH2+]C2CCCCC2[NH2+]1` (stereo not shown) [1b, oxaliplatin-imatinib], the IC50 [9] is reported as 10.6 ± 1.58 µM.
`Cc1ccc(NC(=O)c2ccc(CN3CCN(C)CC3)cc2)cc1Nc1nccc(-c2cccnc2)n1` [Imatinib, reference compound] showed a remaining activity at 10 µM [10] of 100%.
`COc1cc2c(Nc3ccc(Br)cc3F)ncnc2cc1OCC1CCN(C)CC1` [Vandetanib, reference compound] gave a remaining activity at 10 µM [11] of 3.1% and a remaining activity at 10 µM [12] of 7.7%.
`C#Cc1cccc(Nc2c3cc(OCCOC)c(OCCOC)cc3nc[n+]2[Pt@SP2-2]([NH3+])([NH3+])[Cl])c1` [2a, cisplatin-erlotinib] was tested, and the “A to B transport (apparent permeability)” value [13] was 7.21 × 10^−6, the “B to A transport (apparent permeability)” value [13] was 7.88 × 10^−6 and the Percent control [14] was 15%.
